{"source": "patent US20070149456A1", "about": "“Epithelial sodium channel inhibiting agents and uses therefor” (University of Pittsburgh, priority 2005, published 2007)", "key": {"αR205A,Δ206-231βγ": {"system": "αR205A,Δ206-231βγ", "experiment": "Two-electrode voltage clamp in oocytes expressing channels lacking furin cleavage and the tract αAsp-206-Arg-231", "type": "cell-based, mouse", "settings": "1 μM α-26", "source_text": "Oocyte Expression—cRNAs for α, β, γ mouse ENaC (wild-type and mutant) subunits and mouse prostasin were synthesized with T3 or T7 m-Message mMachineTM (Ambion, Austin, Tex.). Subunits carrying furin cleavage consensus site mutations and the corresponding wild-type subunits have amino-terminal HA and carboxyl-terminal V5 tags (Hughey, R. P., Bruns, J. B., Kinlough, C. L., Harkleroad, K. L., Tong, Q., Carattino, M. D., Johnson, J. P., Stockand, J. D., and Kleyman, T. R. (2004) J. Biol. Chem. 279, 18111-18114 18). Stage V-VI Xenopus laevis oocytes were pretreated with 1.5 mg/ml of type IV collagenase and injected with 0.5-2 ng of cRNA/subunit. Injected oocytes were maintained as previously reported (Carattino, M. D., Hill, W. G., and Kleyman, T. R. (2003), Arachidonic Acid Regulates Surface Expression of Epithelial Sodium Channels, J Biol. Chem. 278, 36202-36213 29).\nTwo-electrode Voltage Clamp—Two-electrode voltage clamp (TEV) was performed as previously described (Carattino, M. D., Hill, W. G., and Kleyman, T. R. (2003) J Biol. Chem. 278, 36202-36213 29). The extracellular solution (TEV solution) was (in mM): 110 NaCl, 2 KCl, 1.54 CaCl2, 10 HEPES, pH 7.4, or otherwise as indicated. […] ENaC-mediated whole cell Na^+ currents, at −60 mV,were defined as the amiloride-sensitive component of the current. […]"}, "[1]": {"target": "T1, endogenous ENaC in HAE cells (Homo sapiens, UniProt P37088+P51168+P51170)", "T1 construct": "endogenous in cells; host or cells: primary human airway (bronchial) epithelial cells from transplant or donor lungs", "T1 sequence (P37088 1-178)": "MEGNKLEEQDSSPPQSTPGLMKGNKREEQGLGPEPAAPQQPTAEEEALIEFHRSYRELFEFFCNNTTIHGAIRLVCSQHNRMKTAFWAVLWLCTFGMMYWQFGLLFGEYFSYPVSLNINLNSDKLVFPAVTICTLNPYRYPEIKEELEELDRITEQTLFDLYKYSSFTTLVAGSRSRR", "T1 sequence (P37088 205-669)": "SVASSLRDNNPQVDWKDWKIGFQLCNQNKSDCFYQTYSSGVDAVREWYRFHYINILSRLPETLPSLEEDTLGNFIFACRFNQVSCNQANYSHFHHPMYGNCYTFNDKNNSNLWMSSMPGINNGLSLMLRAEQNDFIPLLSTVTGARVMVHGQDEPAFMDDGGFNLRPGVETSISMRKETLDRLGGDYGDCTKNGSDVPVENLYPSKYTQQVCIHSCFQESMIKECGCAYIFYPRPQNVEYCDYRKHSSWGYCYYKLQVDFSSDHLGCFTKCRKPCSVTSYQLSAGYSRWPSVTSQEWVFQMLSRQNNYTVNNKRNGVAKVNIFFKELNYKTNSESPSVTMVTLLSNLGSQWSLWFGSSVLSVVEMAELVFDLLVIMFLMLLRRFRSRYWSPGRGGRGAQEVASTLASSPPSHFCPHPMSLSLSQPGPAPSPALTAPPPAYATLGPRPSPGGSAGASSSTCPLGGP", "T1 sequence (P51168 whole entry)": "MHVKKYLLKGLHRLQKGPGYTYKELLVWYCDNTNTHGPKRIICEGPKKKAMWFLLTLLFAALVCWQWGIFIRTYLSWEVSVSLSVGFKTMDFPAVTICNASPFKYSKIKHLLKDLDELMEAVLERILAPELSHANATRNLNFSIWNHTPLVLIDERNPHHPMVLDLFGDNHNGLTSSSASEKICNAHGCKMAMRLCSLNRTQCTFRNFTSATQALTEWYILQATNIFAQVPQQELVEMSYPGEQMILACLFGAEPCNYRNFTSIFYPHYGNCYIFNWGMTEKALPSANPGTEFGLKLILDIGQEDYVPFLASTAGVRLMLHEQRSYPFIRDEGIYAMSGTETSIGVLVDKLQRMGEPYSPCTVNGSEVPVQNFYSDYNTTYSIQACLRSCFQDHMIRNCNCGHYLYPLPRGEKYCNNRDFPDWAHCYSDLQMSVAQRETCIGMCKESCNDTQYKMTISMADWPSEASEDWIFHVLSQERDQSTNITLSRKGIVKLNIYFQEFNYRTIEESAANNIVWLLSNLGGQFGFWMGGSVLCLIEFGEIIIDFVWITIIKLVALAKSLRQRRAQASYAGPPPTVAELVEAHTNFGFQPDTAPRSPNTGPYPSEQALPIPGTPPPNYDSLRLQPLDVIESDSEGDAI", "T1 sequence (P51170 1-138)": "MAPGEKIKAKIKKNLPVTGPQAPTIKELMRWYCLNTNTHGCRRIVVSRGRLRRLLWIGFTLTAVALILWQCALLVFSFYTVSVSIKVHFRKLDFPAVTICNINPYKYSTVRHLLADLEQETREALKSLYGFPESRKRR", "T1 sequence (P51170 182-649)": "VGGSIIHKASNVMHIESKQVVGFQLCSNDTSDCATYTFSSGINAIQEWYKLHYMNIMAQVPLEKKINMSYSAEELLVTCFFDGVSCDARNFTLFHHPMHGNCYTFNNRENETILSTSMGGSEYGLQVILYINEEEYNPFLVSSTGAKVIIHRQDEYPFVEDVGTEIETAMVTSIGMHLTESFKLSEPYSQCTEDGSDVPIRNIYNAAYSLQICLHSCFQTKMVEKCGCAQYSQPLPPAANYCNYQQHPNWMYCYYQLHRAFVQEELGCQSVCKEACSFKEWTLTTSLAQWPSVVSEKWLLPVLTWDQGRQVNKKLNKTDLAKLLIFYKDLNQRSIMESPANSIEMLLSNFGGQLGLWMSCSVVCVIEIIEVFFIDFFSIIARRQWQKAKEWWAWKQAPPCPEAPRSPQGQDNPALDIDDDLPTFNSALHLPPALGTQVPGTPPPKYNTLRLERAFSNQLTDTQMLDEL", "settings": "human airway cells; stated jointly with mouse CCD; Carattino 2006; read-out: IC50, inhibition of ENaC activity; cited from earlier work"}}, "note": "“Also recorded” adds a separate entry of the source."}
{"substance": "Ac-DLRGALPHPLQRLRTPPPPNPARSAR-NH2 [α-26]", "values": [{"measurement": "block of channels", "setting": "αR205A,Δ206-231βγ", "result": "does not block; also recorded: not blocked"}, {"measurement": "IC50", "setting": "[1]", "result": "50 to 100", "unit": "µM"}]}
